From patent US20100120050A1, “Biomarkers For Assessing Altherosclerotic Potential” (ENTELOS, INC., priority 2008, published 2010)
Where two headings read alike, the source gives them in different places.

Test system: hepatic genes (liver)
Procedure: While the molecular target for PPARγ is not in the liver, it represents the effects of changes in metabolism of the whole animal, which impact liver lipoprotein production and clearance.
Male Sprague-Dawley (Crl:CD® (SD)(IGS)BR) rats (Charles River Laboratories, Portage, Mich.), weight matched, 7 to 8 weeks of age, were housed individually in hanging, stainless steel, wire-bottom cages in a temperature (66-77° F.), light (12-hour dark/light cycle) and humidity (30-70%) controlled room. Water and rodent diet were available ad libitum throughout the 5 day acclimatization period and during the 5 day treatment period. Housing and treatment of the animals were in accordance with regulations outlined in the USDA Animal Welfare Act (9 CFR Parts 1, 2 and 3).
Rats (three per group) were dosed daily at either a low or high dose. […] Animals were necropsied on days 0.25, 1, 3, and 5. Up to 13 tissues (e.g., liver, kidney, heart, bone marrow, blood, spleen, brain, intestine, glandular and nonglandular stomach, lung, muscle, and gonads) were collected for histopathological evaluation and microarray expression profiling on the Affymetrix Rat Whole Genome RG230 v2 platform. In addition, a clinical pathology panel consisting of 37 clinical chemistry and hematology parameters was generated from blood samples collected on days 3 and 5.
Gene expression profiling, data processing and quality control were performed using protocols recommended by. Briefly, liver samples from 3 rats were chosen at random from each treatment and control group for each timepoint for expression profile analysis on the Affymetrix Rat Whole Genome RG230 v2 microarray (Affymetrix, Santa Clara, Calif.). Log transformed signal data for all probes were array-wise normalized using the Affymetrix MASS algorithm. Expression log ratios of base 10 (log(10) ratios) were computed as the difference between the logs of the averaged normalized experimental signals and the averaged normalized time-matched vehicle control signals for each gene.

CCc1ccc(CCOc2ccc(CC3SC(=O)NC3=O)cc2)nc1 (stereo not drawn) [pioglitazone]
Average Log (10) Ratio: L-3-hydroxyacyl-Coenzyme A dehydrogenase, short chain (rat liver, probe AA891362, Rn.92789, oral gavage, experiments of Table 3): 0.375 | Average Log (10) Ratio: acetyl-coenzyme A acetyltransferase 1 (rat liver, probe AA899304, Rn.4054, oral gavage, experiments of Table 3): 0.171 | Average Log (10) Ratio: transferrin (rat liver, probe AA945548, Rn.91296, oral gavage, experiments of Table 3): −0.222 | Average Log (10) Ratio: sterol regulatory element binding factor 1 (rat liver, probe AF286470, Rn.801, oral gavage, experiments of Table 3): −0.118 | Average Log (10) Ratio: CCAAT/enhancer binding protein (C/EBP), delta (rat liver, probe AI176576, Rn.6975, oral gavage, experiments of Table 3): −0.035 | Average Log (10) Ratio: fatty acid synthase (rat liver, probe AI179334, Rn.9486, oral gavage, experiments of Table 3): −0.411 | Average Log (10) Ratio: peroxisome proliferator activated receptor alpha (rat liver, probe AI385341, Rn.9753, oral gavage, experiments of Table 3): 0.247 | Average Log (10) Ratio: perilipin (rat liver, probe AI406700, Rn.9737, oral gavage, experiments of Table 3): −0.187 | Average Log (10) Ratio: monoglyceride lipase (rat liver, probe AI713204, Rn.40396, oral gavage, experiments of Table 3): −0.118 | Average Log (10) Ratio: phosphatidylinositol 3-kinase, C2 domain containing, gamma polypeptide (rat liver, probe AW526669, Rn.169550, oral gavage, experiments of Table 3): −0.240 | Average Log (10) Ratio: monoglyceride lipase (rat liver, probe AY081195, Rn.40396, oral gavage, experiments of Table 3): −0.131 | Average Log (10) Ratio: mitogen-activated protein kinase 8 (rat liver, probe BE105603, Rn.4090, oral gavage, experiments of Table 3): 0.332 | Average Log (10) Ratio: ELOVL family member 6, elongation of long chain fatty acids (yeast) (rat liver, probe BF396857, Rn.46942, oral gavage, experiments of Table 3): −0.225 | Average Log (10) Ratio: sterol regulatory element binding factor 1 (rat liver, probe BF398848, Rn.801, oral gavage, experiments of Table 3): −0.092 | Average Log (10) Ratio: RIKEN cDNA 1500016L11 (DBSS) (rat liver, probe BF407188, Rn.15135, oral gavage, experiments of Table 3): −0.149 | Average Log (10) Ratio: monoglyceride lipase (rat liver, probe BG372713, Rn.40396, oral gavage, experiments of Table 3): −0.110 | Average Log (10) Ratio: Pyruvate carboxylase (rat liver, probe BG376902, Rn.11094, oral gavage, experiments of Table 3): 0.300 | Average Log (10) Ratio: acetyl CoA transferase-like (DBSS) (rat liver, probe BG377636, Rn.98393, oral gavage, experiments of Table 3): 0.071 | Average Log (10) Ratio: phospholipid transfer protein (DBSS) (rat liver, probe BI278687, Rn.117434, oral gavage, experiments of Table 3): −0.045 | Average Log (10) Ratio: guanine nucleotide binding protein, alpha stimulating, olfactory type (rat liver, probe BI281656, Rn.39132, oral gavage, experiments of Table 3): −0.386 | Average Log (10) Ratio: acetyl-Coenzyme A acyltransferase 2 (mitochondrial 3-oxoacyl-Coenzyme A thiolase) (rat liver, probe BI282488, Rn.3786, oral gavage, experiments of Table 3): 0.046 | Average Log (10) Ratio: glycerol-3-phosphate acyltransferase, mitochondrial (rat liver, probe BI288209, Rn.44456, oral gavage, experiments of Table 3): −0.319 | Average Log (10) Ratio: elongation of very long chain fatty acids (FEN1/Elo2, SUR4/Elo3, yeast)-like 3 (DBSS) (rat liver, probe BI292438, Rn.79322, oral gavage, experiments of Table 3): 0.334 | Average Log (10) Ratio: NCI_CGAP_Emb2 cDNA clone IMAGE: 4176354 (rat liver, probe BI850137, Rn.83595, oral gavage, experiments of Table 3): 0.315 | Average Log (10) Ratio: pyruvate dehydrogenase kinase, isoenzyme 3 (mapped) (rat liver, probe BM389330, Rn.18101, oral gavage, experiments of Table 3): −0.142 | Average Log (10) Ratio: 3-hydroxy-3-methylglutaryl-Coenzyme A reductase (rat liver, probe BM390399, Rn.9437, oral gavage, experiments of Table 3): −0.018 | Average Log (10) Ratio: sulfotransferase family 2A, dehydroepiandrosterone (DHEA)-preferring, member 1 (rat liver, probe D14989, Rn.91378, oral gavage, experiments of Table 3): 0.112 | Average Log (10) Ratio: apolipoprotein E (rat liver, probe J02582, Rn.32351, oral gavage, experiments of Table 3): 0.410 | Average Log (10) Ratio: stearoyl-Coenzyme A desaturase 1 (rat liver, probe J02585, Rn.1023, oral gavage, experiments of Table 3): 0.056 | Average Log (10) Ratio: apolipoprotein B (rat liver, probe M14952, Rn.33815, oral gavage, experiments of Table 3): −0.303 | Average Log (10) Ratio: NCI_CGAP_Emb2 cDNA clone IMAGE: 4176354 (rat liver, probe M15114, Rn.83595, oral gavage, experiments of Table 3): 0.052 | Average Log (10) Ratio: malic enzyme 1 (rat liver, probe M30596, Rn.161920, oral gavage, experiments of Table 3): −0.083 | Average Log (10) Ratio: glucokinase (rat liver, probe NM_012565, Rn.10447, oral gavage, experiments of Table 3): −0.220 | Average Log (10) Ratio: serine (or cysteine) peptidase inhibitor, clade E, member 1 (rat liver, probe NM_012620, Rn.29367, oral gavage, experiments of Table 3): 0.049 | Average Log (10) Ratio: adrenergic receptor, beta 1 (rat liver, probe NM_012701, Rn.87064, oral gavage, experiments of Table 3): 0.205 | Average Log (10) Ratio: hexokinase 2 (rat liver, probe NM_012735, Rn.91375, oral gavage, experiments of Table 3): 0.300 | Average Log (10) Ratio: guanylate cyclase 1, soluble, beta 3 (rat liver, probe NM_012769, Rn.87228, oral gavage, experiments of Table 3): −0.120 | Average Log (10) Ratio: guanylate cyclase 1, soluble, beta 2 (rat liver, probe NM_012770, Rn.10933, oral gavage, experiments of Table 3): −0.120 | Average Log (10) Ratio: mitogen activated protein kinase 10 (rat liver, probe NM_012806, Rn.9911, oral gavage, experiments of Table 3): 0.229 | Average Log (10) Ratio: carnitine palmitoyltransferase 2 (rat liver, probe NM_012930, Rn.11389, oral gavage, experiments of Table 3): 0.030 | Average Log (10) Ratio: 3-hydroxy-3-methylglutaryl-Coenzyme A reductase (rat liver, probe NM_013134, Rn.9437, oral gavage, experiments of Table 3): 0.086 | Average Log (10) Ratio: transforming growth factor, beta 3 (rat liver, probe NM_013174, Rn.7018, oral gavage, experiments of Table 3): −0.086 | Average Log (10) Ratio: carnitine palmitoyltransferase 1b, muscle (rat liver, probe NM_013200, Rn.6028, oral gavage, experiments of Table 3): 0.125 | Average Log (10) Ratio: solute carrier family 10, member 2 (rat liver, probe NM_017222, Rn.85891, oral gavage, experiments of Table 3): −0.206 | Average Log (10) Ratio: mitogen-activated protein kinase 9 (rat liver, probe NM_017322, Rn.9910, oral gavage, experiments of Table 3): −0.209 | Average Log (10) Ratio: acyl-Coenzyme A oxidase 1, palmitoyl (rat liver, probe NM_017340, Rn.31796, oral gavage, experiments of Table 3): 0.165 | Average Log (10) Ratio: transforming growth factor, beta 1 (rat liver, probe NM_021578, Rn.40136, oral gavage, experiments of Table 3): −0.047 | Average Log (10) Ratio: protein kinase, AMP-activated, beta 2 non-catalytic subunit (rat liver, probe NM_022627, Rn.15423, oral gavage, experiments of Table 3): −0.432 | Average Log (10) Ratio: transforming growth factor, beta 2 (rat liver, probe NM_031131, Rn.24539, oral gavage, experiments of Table 3): −0.378 | Average Log (10) Ratio: carnitine palmitoyltransferase 1a, liver (rat liver, probe NM_031559, Rn.2856, oral gavage, experiments of Table 3): 0.341 | Average Log (10) Ratio: protein kinase, AMP-activated, beta 1 non-catalytic subunit (rat liver, probe NM_031976, Rn.3619, oral gavage, experiments of Table 3): −0.188 | Average Log (10) Ratio: ATP-binding cassette, sub-family D (ALD), member 1 (DBSS) (rat liver, probe NM_033352, Rn.177278, oral gavage, experiments of Table 3): 0.292 | Average Log (10) Ratio: insulin-like growth factor binding protein, acid labile subunit (rat liver, probe NM_053329, Rn.164865, oral gavage, experiments of Table 3): −0.263 | Average Log (10) Ratio: pyruvate dehydrogenase kinase, isoenzyme 4 (rat liver, probe NM_053551, Rn.30070, oral gavage, experiments of Table 3): −0.148 | Average Log (10) Ratio: phosphatidylinositol 3-kinase, C2 domain containing, gamma polypeptide (rat liver, probe NM_053923, Rn.169550, oral gavage, experiments of Table 3): −0.055 | Average Log (10) Ratio: pyruvate dehydrogenase E1 alpha 2 (rat liver, probe NM_053994, Rn.11126, oral gavage, experiments of Table 3): −0.171 | Average Log (10) Ratio: nuclear receptor subfamily 0, group B, member 2 (rat liver, probe NM_057133, Rn.10712, oral gavage, experiments of Table 3): 0.034 | Average Log (10) Ratio: hydroxyacyl-Coenzyme A dehydrogenase/3-ketoacyl-Coenzyme A thiolase/enoyl-Coenzyme A hydratase (trifunctional protein), beta subunit (rat liver, probe NM_133618, Rn.11253, oral gavage, experiments of Table 3): 0.182 | Average Log (10) Ratio: ELOVL family member 5, elongation of long chain fatty acids (yeast) (rat liver, probe NM_134382, Rn.4243, oral gavage, experiments of Table 3): −0.191 | Average Log (10) Ratio: Glycerol-3-phosphate dehydrate dehydrogenase (mtGPDH) mRNA, 3′UTR (rat liver, probe U08027, Rn.89705, oral gavage, experiments of Table 3): 0.026 | Average Log (10) Ratio: glycerol-3-phosphate acyltransferase, mitochondrial (rat liver, probe U36771, Rn.44456, oral gavage, experiments of Table 3): −0.239 | Average Log (10) Ratio: Cytochrome P450, family 2, subfamily b, polypeptide 2 (rat, in vivo, po): 0.275 | Average Log (10) Ratio: cytochrome P450, family 2, subfamily b, polypeptide 13 (rat, in vivo, po): −0.015 | Average Log (10) Ratio: cytochrome P450, family 3, subfamily a, polypeptide 13 (rat, in vivo, po): −0.242 | Average Log (10) Ratio: cytochrome P450, family 7, subfamily a, polypeptide 1 (rat, in vivo, po): 0.320 | Average Log (10) Ratio: cytochrome P450, family 8, subfamily b, polypeptide 1 (rat, in vivo, po): 0.351
